Reference: patent US6518252B2, “Method of treating aquatic animals with an antimicrobial agent and chelating agent” (priority 2000, dated 2003)

Assays:
Ps. aeruginosa = experiment: Two-dimensional microtiter checkerboard, MIC and FIC of EDTA in 50 mM Tris and antibiotics; assay type: cell-based, Pseudomonas aeruginosa; conditions: Ps. aeruginosa; alone
Experimental: (§1) Sabath, L. D, Antimicrob. Agents and Chem. 210-217. (1967) and Sparks et al., Vet. Res. Comm. 18, 241-249 (1994), incorporated herein by reference in their entireties. […] Then 0.05 ml of an 18-hour old culture of a test organism, containing 10^6 colony-forming units (CFU) ml, were added to each well. Controls for the culture and media were included in each plate. Plates were covered and incubated at 37° C. for 18-24 hours. […] To generate isobolograms, FICs of the two test solutions were plotted individually on the x-axis and y-axis to determine the effect of combining the two test solutions on bacterial growth. A line that curves away from the zero point and the coordinates indicated antagonism. […] Sabath, L. D, Antimicrob. Agents and Chem. 210-217. (1967), and incorporated herein by reference in their entireties. A numerical score or Fractional Inhibitory Concentration (FIC) index was determined.

Staph. aureus = experiment: as above; assay type: cell-based, Staphylococcus aureus; conditions: Staph. aureus; alone
Experimental: as §1

Ent. faecalis = experiment: as above; assay type: cell-based, Enterococcus faecalis; conditions: Ent. faecalis; alone
Experimental: as §1

surface ulcers of Koi = experiment: Treatment of Koi suffering from surface ulcers (Example 2); assay type: in vivo, Koi (Cyprinus carpio); conditions: antibiotics injected directly into the fish, before the bath treatment
Experimental: All fish were housed in a communal “hospital tank” before treatment and moved to an isolation tank after each treatment. The temperature of the bath was adjusted to that of the hospital tank temperature, 24° C., and adequate aeration was supplied to the treatment tank.

| SMILES | MIC, antibiotic individually administered (Ps. aeruginosa) [µg/mL] | MIC, antibiotic individually administered (Staph. aureus) [µg/mL] | MIC, antibiotic individually administered (Ent. faecalis) [µg/mL] | Healing of visible ulcers (surface ulcers of Koi) |
| --- | --- | --- | --- | --- |
| NCC[C@H](O)C(=O)N[C@@H]1C[C@H](N)[C@@H](O[C@H]2O[C@H](CN)[C@@H](O)[C@H](O)[C@H]2O)[C@H](O)[C@H]1O[C@H]1O[C@H](CO)[C@@H](O)[C@H](N)[C@H]1O [Amikacin, amikacin, reference compound] | 1 | 120 | 2000 | failed to heal visible ulcers |
| CC1(C)S[C@@H]2[C@H](NC(=O)[C@H](N)c3ccccc3)C(=O)N2[C@H]1C(=O)O [Ampicillin, ampicillin, reference compound] | 490 | 240 | 1 |  |
| C[C@H]1[C@H](NC(=O)/C(=N\OC(C)(C)C(=O)O)c2csc(N)n2)C(=O)N1S(=O)(=O)O [Azactam] |  |  |  | failed to heal visible ulcers |
| CCN1CCN(c2cc3c(cc2F)c(=O)c(C(=O)O)cn3C2CC2)CC1 [Baytril] |  |  |  | failed to heal visible ulcers |
| O=C(N[C@H](CO)[C@H](O)c1ccc([N+](=O)[O-])cc1)C(Cl)Cl [Chloramphenicol, chloramphenicol, reference compound] |  | 390 | 400 |  |
